Experimental data from ChEMBL document CHEMBL1151065, “Antiproliferative activity of haloosmocenium ions against human and murine cancer cell lines” (Bioorg Med Chem Lett, 1994).

What was measured:
COLO 320 = test: Antiproliferative effect against human COLO 320 colon adenocarcinoma cells; assay type: functional, cell-based
Daudi = test: Antiproliferative effect against human Daudi Burkitt lymphoma cells; assay type: functional, cell-based
HL-60 = test: Antiproliferative effect against human HL60 promyelocytic leukemia cells; assay type: functional, cell-based
LX-830 cell line [1] = test: Antiproliferative effect against mouse LX830 lymphoma cells; assay type: functional, cell-based
NIH3T3 = test: Antiproliferative effect against mouse NIH3T3 embryonic cells; assay type: functional, cell-based
CCRF S-180 = test: Antiproliferative effect against mouse S180 sarcoma cells; assay type: functional, cell-based
U-937 [2] = test: Antiproliferative effect against human U937 histiocytic lymphoma cells; assay type: functional, cell-based
U-937 [3] = test: Rate of oxygen consumption of human U937 cells (10e7 cells) at 10 uM concentration was determined at 30degreeC, with control value 14.5; assay type: functional, cell-based
LX-830 cell line [4] = test: Antiproliferative effect against mouse LX830 lymphoma cells; inactive; assay type: functional, cell-based
[5] = Redox potential from cyclic voltammogram; assay type: physicochemical
U-937 [6] = test: Rate of oxygen consumption of human U937 cells (10e7 cells) at 200 uM concentration was determined at 30 degree C; assay type: functional, cell-based
[7] = Rate of oxidation by the compound at 0.44 mM versus 0.49 mM of reduced cytochrome was determined at 30 degree C
[8] = Rate of oxidation by the compound at 0.5 mM versus 0.24 mM of NADH was determined

Substance	IC50 (COLO 320)	IC50 (Daudi)	IC50 (HL-60)	IC50 (LX-830 cell line [1])	IC50 (NIH3T3)	IC50 (CCRF S-180)	IC50 (U-937 [2])	Oxygen consumption rate (U-937 [3])	IC50 (LX-830 cell line [4])	E0 [5]	Oxygen consumption rate (U-937 [6])	Oxidation rate [7]	Oxidation rate [8]
CISPLATIN [listing 1 of 2 here]	6.6 µM	1.7 µM	4.3 µM	13.2 µM	0.3 µM	0.8 µM	5.2 µM						
CISPLATIN [listing 2 of 2 here]								13.4 nM/min					
osmium(2+) ion bis(cyclopenta-1,3-diene) hexafluoro-phosphanuide iodide [listing 1 of 2 here]	> 200 µM	79 µM	75 µM		87 µM	120 µM	196 µM		Not Active	0.46			
osmium(2+) ion bis(cyclopenta-1,3-diene) hexafluoro-phosphanuide iodide [listing 2 of 2 here]											10.5 nM/min	824 nM/min	8 µM/min
